What is called MIC is the lowest concentration found to suppress growth. The ED50 is the dose at which the effect has come halfway, by size or by number of responders.

Each structure is given as a SMILES string. In brackets after ≈: the same amount, converted by molar mass. Like-named read-outs stand apart in the source and are kept apart here. A value given as a limit tells only on which side of the number the result lay.

Data set [1] concerns Streptococcus dysgalactiae. Briefly: MIC, agar dilution, Streptococcus dysgalactiae. In kind it is cell-based. To be noted: Streptococcus dysgalactiae; strain UC251; read-out: MIC. A digest of the protocol: (§1)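 Each organism receives an inoculum of approx. 10^3–10^4 CFU, taken from a 5% CO2 BHI subculture standardised to 0.5 McFarland and diluted 1:20. It is spotted on Mueller-Hinton agar containing the compound, then incubated for 16–18 h at 37 °C with CO2.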
On the technique in general: In agar dilution, organisms are placed on agar that contains the substance at set levels.

In data set [2] the test system is Corynebacterium pyogenes. Briefly: MIC, agar dilution, Corynebacterium pyogenes. In kind it is cell-based. To be noted: strain 213-2; read-out: MIC. The method, boiled down:
as §1

Data set [3] concerns Bordetella bronchiseptica. Briefly: MIC, agar dilution, Bordetella bronchiseptica. The format is cell-based. Conditions: Bordetella bronchiseptica, read-out: MIC. A digest of the protocol:
as §1

Data set [4] deals with Streptococcus agalactiae. Briefly: MIC, agar dilution, Streptococcus agalactiae. The format is cell-based. To be noted: Streptococcus agalactiae, read-out: MIC. A digest of the protocol:
as §1

Data set [5] concerns Salmonella typhimurium. The data set is described as follows: Systemic infection model in mice, ED50, Salmonella typhimurium. In kind it is in vivo. To be noted: Salmonella enterica, 144 h, 50% survival six days post infection, per day, read-out: ED50 (95% confidence limits). As for the experimental part:
Experimental Infections and Antitiotic Treatment (for ED50 in mice tests).
Mice are infected and treated with the test antibiotic compound according to procedures described previously [Yancey, Jr., R. J. et at. supra].
The test antibiotic compound is administered subcutaneously immediately following infection, then at 24 hours and 48 hours post infection. The medium effective dose (ED50) number is determined for all infections. The ED50 value is defined as the calculated concentration of the test antibiotic compound in mg. of compound per kilogram of mouse body weight per day at which 50% of the animals survived six days post infection.

In data set [6] the test system is Micrococcus luteus. Briefly: MIC, agar dilution, Micrococcus luteus. The format is cell-based. To be noted: Micrococcus luteus; strain UC130; read-out: MIC. The method, boiled down:
as §1

Data set [7] concerns Pasteurella multocida. Briefly: MIC, agar dilution, Pasteurella multocida. In kind it is cell-based. Conditions: Pasteurella multocida; strain B77-18; read-out: MIC. The method, boiled down: as §1
Data set [8] in a line: Stability of the compound. In kind it is physicochemical.
Data set [9] in a line: Serum half life / duration of antibiotic action.
[10] abbreviates: TYPHIMURIUM / UC6162, sc, strain UC6162, subcutaneous, 0, 24, 48 hours post infection.
The mark [11] stands for this setting: TYPHIMURIUM / UC6164, sc, strain UC6164, lactamase producing, subcutaneous, 0, 24, 48 hours post infection.

Regarding `CO/N=C(\C(=O)N[C@@H]1C(=O)N2C(C(=O)O)=C(CSC(=O)c3ccco3)CS[C@H]12)c1csc(N)n1` [ceftiofur, 7-[2-(amino-1,3-thiazol-4-yl)-2-(methoxyimino)acetamido]-3-[(fur-2-ylcarbonyl)thiomethyl]-3-cephem-4-carboxylic acid, reference compound], the minimum inhibitory concentration (MIC) in data set [1] was not above 0.06 mg/L; in data set [2] it was less than 0.06 mg/L; in data set [3] (strain UC3287) it was more than 32 mg/L; in data set [3] (strain UC6313), more than 32 mg/L; in data set [4] (strain UC3947), not above 0.06 mg/L; in [4] (strain UC6892) it was not above 0.06 mg/L. For the same molecule, the results for the minimum inhibitory concentration (MIC) in [6] and in data set [7] were 0.25 mg/L (≈ 0.477 µM) and not above 0.06 mg/L, respectively. Besides, the ED50 was determined as 0.4 mg/kg in data set [5] (setting [10]) and 0.5 mg/kg in data set [5] (setting [11]).

Regarding `CO/N=C(\C(=O)N[C@@H]1C(=O)N2C(C(=O)O)=C(CS)CS[C@H]12)c1csc(N)n1` [Formula III compound, 3-mercaptomethyl-7β-[2-(2-amino-1,3-thiazol-4-yl)-(Z)-2-(methoxyimino)acetamido]ceph-3-em-4-carboxylic acid], the MIC in [1] was not above 0.06 mg/L; in [2], 0.25 mg/L; in data set [3] (strain UC3287), more than 32 mg/L; in data set [3] (strain UC6313), more than 32 mg/L; in data set [4] (strain UC3947) it was not above 0.06 mg/L; in data set [4] (strain UC6892), not above 0.06 mg/L. Besides, the MIC in [7] is not above 0.06 mg/L. Further, the “stability in alkaline solution” value in [8] (alkaline solution) is “decomposes quickly”. The “stability in the dry state” value in data set [8] (dry state, white powder) is given as “stable in the dry state”. Moreover, in [8] (strongly acidic media), the “stability in strongly acidic media” value is “converted to the 3,4-thio-lactone derivative”. In addition, the ED50 turned out to be 0.3 mg/kg in data set [5] (setting [10]) and 0.5 mg/kg in data set [5] (setting [11]). Further, the “duration of antibiotic action” value in data set [9] (compared with ceftiofur) was “biologically longer acting as an antibiotic than ceftiofur”. Moreover, in [9] (inferred from results against Salmonella typhimurium), the serum half life result was “longer serum half life”.

On to `CO/N=C(\C(=O)N[C@@H]1C(=O)N2C(C(=O)O)=C(CO)CS[C@H]12)c1csc(N)n1` [desacetyl cefotoxime, 7-[2-(2-amino-1,3-thiazol-4-yl)-(syn)-2-methoxyiminoacetamido]-3-hydroxymethylceph-3-em-4-carboxylic acid, reference compound], for which the MIC in data set [1] is not above 0.06 mg/L; in [2] it was 0.25 mg/L (≈ 0.605 µM); in [3] (strain UC3287), more than 32 mg/L; in [3] (strain UC6313), more than 32 mg/L; in data set [4] (strain UC3947), not above 0.6 mg/L; in [4] (strain UC6892), not above 0.06 mg/L. Moreover, the minimal inhibitory concentration (MIC) in data set [7] was not above 0.06 mg/L. Moreover, the ED50 in data set [5] (setting [10]) is 0.8 mg/kg; in [5] (setting [11]), 1 mg/kg.

The values are drawn from patent publication US5134137A, “Cephalosporin antibiotics” (The Upjohn Company, priority 1990, dated 1992).
